Read-outs that look alike come from different tables or passages of the source.
Key:
S. aureus RN450 = assay: In Vitro Anti-Bacterial Activity Assay (MIC), gram positive; format: cell-based; conditions: Staphylococcus aureus, RN450, 18 h
E. coli mL308 225 = assay: In Vitro Anti-Bacterial Activity Assay (MIC), gram negative; format: cell-based; conditions: for MIC: Escherichia coli, ML308225, 18 h
[1] = MIC class, Table 3 (Continued), read-out: Gram+ activity
[2] = MIC class, Table 3 (Continued), read-out: Gram− activity
[3] = MIC class, Table 3, read-out: Antibiotic Activity Gram +
[4] = MIC class, Table 3, read-out: Antibiotic Activity Gram −
[5] = gram positive bacteria, read-out: Antibiotic Activity Gram + (MIC)
[6] = gram negative bacteria, read-out: Antibiotic Activity Gram − (MIC)

| Structure (SMILES) | MIC (S. aureus RN450; [3]) [µg/mL] | MIC (E. coli mL308 225; [4]) [µg/mL] | MIC (S. aureus RN450; [5]) [µg/mL] | MIC (E. coli mL308 225; [6]) [µg/mL] | also measured |
| --- | --- | --- | --- | --- | --- |
| CN(C)[C@@H]1C(O)=C(C(N)=O)C(=O)[C@@]2(O)C(O)=C3C(=O)c4c(O)ccc(-c5ccc(C(F)(F)F)cc5)c4C[C@H]3C[C@@H]12 | – | – | – | – | MIC (S. aureus RN450; [1]): < 4 µg/mL; MIC (E. coli mL308 225; [2]): < 4 µg/mL |
| CN(C)[C@@H]1C(O)=C(C(N)=O)C(=O)[C@@]2(O)C(O)=C3C(=O)c4c(ccc(NC(=O)CCCC(=O)O)c4O)C[C@H]3C[C@@H]12 [HX] | > 4 | > 4 | – | – | – |
| CN(C)c1cc(C#CC2=CCCC2)c(O)c2c1C[C@H]1C[C@H]3[C@H](N(C)C)C(O)=C(C(N)=O)C(=O)[C@@]3(O)C(O)=C1C2=O | – | – | < 4 | < 4 | – |
| CN(C)c1cc(CNCCCC(F)(F)F)c(O)c2c1C[C@H]1C[C@H]3[C@H](N(C)C)C(O)=C(C(N)=O)C(=O)[C@@]3(O)C(O)=C1C2=O | – | – | < 4 | < 4 | – |
| CC(C)CNCc1ccc(O)c2c1C[C@H]1C[C@H]3C(N(C)C)C(O)=C(C(N)=O)C(=O)[C@@]3(O)C(O)=C1C2=O (stereo partly drawn) [NF] | < 4 | < 4 | – | – | – |
| CN(C)[C@@H]1C(O)=C(C(N)=O)C(=O)[C@@]2(O)C(O)=C3C(=O)c4c(O)ccc(-c5cncc(Br)c5)c4C[C@H]3C[C@@H]12 | – | – | < 4 | < 4 | – |
| CNCc1cc(CNCC(C)(C)C)c2c(c1O)C(=O)C1=C(O)[C@]3(O)C(=O)C(C(N)=O)=C(O)[C@@H](N(C)C)[C@@H]3C[C@@H]1C2 | – | – | > 4 | > 4 | – |
| CN(C)c1cc(Cn2ccc(C=O)c2)c(O)c2c1C[C@H]1C[C@H]3[C@H](N(C)C)C(O)=C(C(N)=O)C(=O)[C@@]3(O)C(O)=C1C2=O | – | – | < 4 | > 4 | – |
| CC(C)CNCc1ccc2c(c1O)C(=O)C1=C(O)[C@]3(O)C(=O)C(C(N)=O)=C(O)[C@@H](N(C)C)[C@@H]3[C@@H](O)[C@@H]1[C@H]2C [JH] | < 4 | < 4 | – | – | – |
| CN(C)c1cc2c(c3c1C[C@H]1C[C@H]4[C@H](N(C)C)C(O)=C(C(N)=O)C(=O)[C@@]4(O)C(O)=C1C3=O)OC(=O)N(CC(C)(C)C)C2 | – | – | > 4 | > 4 | – |
| CN(C)c1cc(CN2CCCCC2)c(O)c2c1C[C@H]1C[C@H]3[C@H](N(C)C)C(O)=C(C(N)=O)C(=O)[C@@]3(O)C(O)=C1C2=O | – | – | < 4 | < 4 | – |
| CN(C)[C@@H]1C(O)=C(C(N)=O)C(=O)[C@@]2(O)C(O)=C3C(=O)c4c(O)ccc(-c5cc6ccccc6o5)c4C[C@H]3C[C@@H]12 [drawing 3311] | – | – | – | – | MIC (S. aureus RN450; [1]): < 4 µg/mL; MIC (E. coli mL308 225; [2]): < 4 µg/mL |
| COc1ncc(-c2ccc(O)c3c2C[C@H]2C[C@H]4[C@H](N(C)C)C(O)=C(C(N)=O)C(=O)[C@@]4(O)C(O)=C2C3=O)c(OC)n1 [GF] | < 4 | < 4 | – | – | – |
| Cc1cc(CNCc2cc(N(C)C)c3c(c2O)C(=O)C2=C(O)[C@]4(O)C(=O)C(C(N)=O)=C(O)[C@@H](N(C)C)[C@@H]4C[C@@H]2C3)oc1C [LC] | < 4 | < 4 | – | – | – |
| COc1ccc(OC)c(-c2ccc(O)c3c2C[C@H]2C[C@H]4[C@H](N(C)C)C(O)=C(C(N)=O)C(=O)[C@@]4(O)C(O)=C2C3=O)c1 | – | – | – | – | MIC (S. aureus RN450; [1]): < 4 µg/mL; MIC (E. coli mL308 225; [2]): < 4 µg/mL |
| CN1CCN(Cc2ccc(-c3ccc(O)c4c3C[C@H]3C[C@H]5[C@H](N(C)C)C(O)=C(C(N)=O)C(=O)[C@@]5(O)C(O)=C3C4=O)cc2)CC1 [MF] | < 4 | < 4 | – | – | – |
| CN(C)[C@@H]1C(O)=C(C(N)=O)C(=O)[C@@]2(O)C(O)=C3C(=O)c4c(O)ccc(C#CCCC#Cc5ccc(O)c6c5C[C@@]5(C)C[C@@]7(C)[C@H](N(C)C)C(O)C(C(N)=O)C(=O)[C@@]7(O)C(O)=C5C6=O)c4C[C@@]3(C)C[C@@]12C (stereo partly drawn) | – | – | > 4 | > 4 | – |
| COc1ccc(C=O)cc1-c1ccc(O)c2c1C[C@H]1C[C@H]3[C@H](N(C)C)C(O)=C(C(N)=O)C(=O)[C@@]3(O)C(O)=C1C2=O [BC] | < 4 | < 4 | – | – | – |
| CN(C)[C@@H]1C(O)=C(C(N)=O)C(=O)[C@@]2(O)C(O)=C3C(=O)c4c(O)ccc(C(=O)CN5CCOCC5)c4C[C@H]3C[C@@H]12 | – | – | < 4 | > 4 | – |
| CC1OC(=O)NC1COC(=O)N(Cc1cc(N(C)C)c2c(c1O)C(=O)C1=C(O)[C@]3(O)C(=O)C(C(N)=O)=C(O)[C@@H](N(C)C)[C@@H]3C[C@@H]1C2)CC(C)(C)C (stereo partly drawn) | – | – | < 4 | > 4 | – |

| Structure (SMILES) | MIC (S. aureus RN450; [3]) [µg/mL] | MIC (E. coli mL308 225; [4]) [µg/mL] | MIC (S. aureus RN450; [5]) [µg/mL] | MIC (E. coli mL308 225; [6]) [µg/mL] | also measured |
| --- | --- | --- | --- | --- | --- |
| CN(C)[C@@H]1C(O)=C(C(N)=O)C(=O)[C@@]2(O)C(O)=C3C(=O)c4c(O)c(CN)cc(-c5cccc([N+](=O)O)c5)c4C[C@H]3C[C@@H]12 [DE] | < 4 | > 4 | – | – | – |
| C[C@H]1c2cccc(O)c2C(=O)C2=C(O)[C@]3(O)C(=O)C(C(N)=O)=C(O)[C@@H](N(C)C)[C@@H]3[C@@H](O)[C@@H]21 [A] | < 4 | < 4 | – | – | – |
| CN(C)[C@@H]1C(O)=C(C(N)=O)C(=O)[C@@]2(O)C(O)=C3C(=O)c4c(O)ccc(-c5ccc(C(C)(C)C)cc5)c4C[C@H]3C[C@@H]12 [drawing 3327] | – | – | – | – | MIC (S. aureus RN450; [1]): < 4 µg/mL; Gram− activity (E. coli mL308 225; number printed instead of class symbol, Table 3 (Continued)): 1.5 |
| Cc1ccc(S(=O)(=O)NCC#Cc2cc(N(C)C)c3c(c2O)C(=O)C2=C(O)[C@]4(O)C(=O)C(C(N)=O)=C(O)C(N(C)C)[C@@H]4C[C@@H]2C3)cc1 (stereo partly drawn) [CZ] | > 4 | > 4 | – | – | – |
| CC(C)Cc1cc(N(C)C)c2c(c1O)C(=O)C1=C(O)[C@]3(O)C(=O)C(C(N)=O)=C(O)[C@@H](N(C)C)[C@@H]3C[C@@H]1C2 | – | – | < 4 | < 4 | – |
| CN(C)[C@@H]1C(O)=C(C(N)=O)C(=O)[C@@]2(O)C(O)=C3C(=O)c4c(O)c(CNc5ccccc5)cc(I)c4C[C@H]3C[C@@H]12 | – | – | < 4 | > 4 | – |
| Cc1cc(C)cc(/C=C2\c3cccc(O)c3C(=O)C3=C(O)[C@]4(O)C(=O)C(C(N)=O)=C(O)[C@@H](N(C)C)[C@@H]4[C@@H](O)[C@@H]32)c1 | – | – | – | – | MIC (S. aureus RN450; [1]): < 4 µg/mL; MIC (E. coli mL308 225; [2]): < 4 µg/mL |
| CN(C)[C@@H]1C(O)=C(C(N)=O)C(=O)[C@@]2(O)C(O)=C3C(=O)c4c(O)ccc(-c5ccncc5Cl)c4C[C@H]3C[C@@H]12 | – | – | < 4 | < 4 | – |
| CC(CF)NCc1ccc(O)c2c1C[C@H]1C[C@H]3[C@H](N(C)C)C(O)=C(C(N)=O)C(=O)[C@@]3(O)C(O)=C1C2=O (stereo partly drawn) | – | – | < 4 | – | MIC (E. coli mL308 225; read-out: Antibiotic Activity Gram − (MIC)): > 4 µg/mL |
| C[C@H]1c2ccc(CNCC(C)(C)C)c(O)c2C(=O)C2=C(O)[C@]3(O)C(=O)C(C(N)=O)=C(O)[C@@H](N(C)C)[C@@H]3[C@@H](O)[C@@H]21 [JG] | < 4 | < 4 | – | – | – |
| CO/N=C(/C)c1ccc(O)c2c1C[C@H]1C[C@H]3C(N(C)C)C(O)=C(C(N)=O)C(=O)[C@@]3(O)C(O)=C1C2=O (stereo partly drawn) [ET] | < 4 | < 4 | – | – | – |
| CN(C)c1cc(CC2=COc3ccccc3C2)c(O)c2c1C[C@H]1C[C@H]3[C@H](N(C)C)C(O)=C(C(N)=O)C(=O)[C@@]3(O)C(O)=C1C2=O | – | – | < 4 | > 4 | – |
| CN(C)[C@@H]1C(O)=C(C(N)=O)C(=O)[C@@]2(O)C(O)=C3C(=O)c4c(O)ccc(C#Cc5ccccc5F)c4C[C@H]3C[C@@H]12 | – | – | – | – | MIC (S. aureus RN450; [1]): < 4 µg/mL; MIC (E. coli mL308 225; [2]): < 4 µg/mL |
| CN(C)c1cc(C#CCc2ccccc2)c(O)c2c1C[C@H]1C[C@H]3[C@H](N(C)C)C(O)=C(C(N)=O)C(=O)[C@@]3(O)C(O)=C1C2=O [DQ] | < 4 | > 4 | – | – | – |
| CC(C)CN(C=O)Cc1cc(N(C)C)c2c(c1O)C(=O)C1=C(O)[C@]3(O)C(=O)C(C(N)=O)=C(O)[C@@H](N(C)C)[C@@H]3C[C@@H]1C2 | – | – | > 4 | > 4 | – |
| CC(CC(F)(F)F)N(C)Cc1cc(N(C)C)c2c(c1O)C(=O)C1=C(O)[C@]3(O)C(=O)C(C(N)=O)=C(O)[C@@H](N(C)C)[C@@H]3C[C@@H]1C2 (stereo partly drawn) | – | – | < 4 | < 4 | – |
| CN(C)c1cc(CNCC23CC4CC(CC(C4)C2)C3)c(O)c2c1C[C@H]1C[C@H]3[C@H](N(C)C)C(O)=C(C(N)=O)C(=O)[C@@]3(O)C(O)=C1C2=O | – | – | < 4 | < 4 | – |
| CN(C)c1cc(CCC(=O)NC(C)(C)C)c(O)c2c1C[C@H]1C[C@H]3[C@H](N(C)C)C(O)=C(C(N)=O)C(=O)[C@@]3(O)C(O)=C1C2=O | – | – | > 4 | > 4 | – |
| CCOP(=O)(OCC)C(Nc1cc(N(C)C)c2c(c1O)C(=O)C1=C(O)[C@]3(O)C(=O)C(C(N)=O)=C(O)[C@@H](N(C)C)[C@@H]3C[C@@H]1C2)c1ccc(OC)cc1 (stereo partly drawn) [Z] | – | – | – | – | MIC (S. aureus RN450; read-out: Antibiotic Activity Gram +): < 4 µg/mL |
| CCCC(C)(C)NC(=O)C1=C(O)[C@@H](N(C)C)[C@@H]2[C@@H](O)[C@H]3C(=C(O)[C@]2(O)C1=O)C(=O)c1c(O)cccc1[C@@H]3C [P] | < 4 | – | – | – | – |
